# In US20260152503A1, “SPIROBICYCLIC COMPOUNDS” (ACERAND THERAPEUTICS (HONG KONG) LIMITED, priority 2022, published 2026):
# Key:
# Ba/F3 FGFR2-N549K = target: T1, Ba/F3 FGFR2-N549K (Homo sapiens, UniProt P21802, N549K, cells depend on it); assay: 2D cell proliferation assay, Ba/F3 FGFR2-N549K; type: cell-based, mouse; details: 96 hours, CTG, read-out: Cell Line, IC50 Ba/F3 FGFR2-N549K
# T1 construct: fused on or other part: Q9H694 (Protein bicaudal C homolog 1)
# Description: (§1) Low IC50 values are indicative of the high potency of the FGFR inhibitor compounds in this assay selling. […] Cell proliferation assays are performed in two-dimensional (2D)) anchorage-dependent conditions in 96 well plates (Corning® Black/Clear flat Bottom, Cat #3603) with the following cell lines: • Ba/F3 FGFR2-BICC1 (human […]): Mouse Ba/F3 cell line stably expressed exogenous human FGFR2-BICC1 fusion gene bearing V546F mutation in FGFR2 Ba/F3; • FGFR2-BICC1 (human FGFR2/[…]): Mouse Ba/F3 cell line stably expressed exogenous human FGFR2-BICC1 fusion gene bearing N549K mutation in FGFR2; • Snu-16: human gastric cancer cell with FGFR2 amplification; • KATO III: human gastric cancer cell with FGFR2 amplification; • AN3CA: Human endometrial cancer with FGFR2 mutation (k310R, N549K); • MFM-223: Human breast cancer with FGFR1/2 amplification; • MFE-296: Human endometrial cancer with FGFR2 mutation (N549K); • MFE-280: Human endometrial cancer with FGFR2 mutation ([…]); • NCI-H1581: human non-small cell lung cancer with FGFR1 amplification; • KG-1a: Acute myelogenous leukemia with FGFR1OP2-FGFR1 translocation; • DMS114: human small cell carcinoma of the lung with FGFR1 amplification; • RT112: human bladder cancer with FGFR3 overexpression/FGFR3-TACC3 fusion; • SW780: human bladder cancer with FGFR3 overexpression/FGFR3-BALAP2L1 fusion; • Hep3B: Liver cancer with FGF19 amplification (FGFR4 ligand); • AGS: Human gastric adenocarcinoma with Kras G12D mutation and FGFR wild type; • PC-9: human non-small cell lung cancer (NSCLC) with wild-type FGFR and an EGFR del19 mutation; or • H1975: human non-small cell lung cancer (NSCLC) with wild-type FGFR and EGFR L858R/T790M mutation.
# (§2) Cell lines are purchased from the American Type Culture Collection (ATCC) or Sigma. All cell lines are maintained in RPMI-1640 or DMEM supplemented with 10% heat-inactivated fetal bovine serum.
# (§3) Cells growing in the log phase are detached with Gibco™ TrypLE™ Express Enzyme and plated in 96 well plate at 3000 to 5000 cells/well in 100 μl of media. After overnight incubation at 37° C., 5% CO2 incubator, cells are treated with compounds (50 uL/well) at the final concentrations spanning from 0.000038 uM to 10 μM (4-fold serial dilution for total of 10 points). Cells are incubated at 37° C., 5% CO2, and 95% humidity incubator for 96 hours. At the end of incubation 2D CTG reagent from Promega was added to each well according to vendors recommendation and mixed for 10 min in dark. The luminescence signals are determined with a Biotek™ plate reader. Data is fitted using a sigmoidal curve analysis program (GraphPad Prism®) with variable hill slope and IC50 is determined.
# FGFR1 = target: T2, FGFR1 (Homo sapiens, UniProt P11362); assay: pERK potency assay (In Cell ELISA), DMS114 cells; type: cell-based; details: DMS114 (FGFR1 amplification) cells, 3 hours
# T2 construct: DMS114 (FGFR1 amplification); host or cells: DMS114
# T2 sequence (P11362 22-822): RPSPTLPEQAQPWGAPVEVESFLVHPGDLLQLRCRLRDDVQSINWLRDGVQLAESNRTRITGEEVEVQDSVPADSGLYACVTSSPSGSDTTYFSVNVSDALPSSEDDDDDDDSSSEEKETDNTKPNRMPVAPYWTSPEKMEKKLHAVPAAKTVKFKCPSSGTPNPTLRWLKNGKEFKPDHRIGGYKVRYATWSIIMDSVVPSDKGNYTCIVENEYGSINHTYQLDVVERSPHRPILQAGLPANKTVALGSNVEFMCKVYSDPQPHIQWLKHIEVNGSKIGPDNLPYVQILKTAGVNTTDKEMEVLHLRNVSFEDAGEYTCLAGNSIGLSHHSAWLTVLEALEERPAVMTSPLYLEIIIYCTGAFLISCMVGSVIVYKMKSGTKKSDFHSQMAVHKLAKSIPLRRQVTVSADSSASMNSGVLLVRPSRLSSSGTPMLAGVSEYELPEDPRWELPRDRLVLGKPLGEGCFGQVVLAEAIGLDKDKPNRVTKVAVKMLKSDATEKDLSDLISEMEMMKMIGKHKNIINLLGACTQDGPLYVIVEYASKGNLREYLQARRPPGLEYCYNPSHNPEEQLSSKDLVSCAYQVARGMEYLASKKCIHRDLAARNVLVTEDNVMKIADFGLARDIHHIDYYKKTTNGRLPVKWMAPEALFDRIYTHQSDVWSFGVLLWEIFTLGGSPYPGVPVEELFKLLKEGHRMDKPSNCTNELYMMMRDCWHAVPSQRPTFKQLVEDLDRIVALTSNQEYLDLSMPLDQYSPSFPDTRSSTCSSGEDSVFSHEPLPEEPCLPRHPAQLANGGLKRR
# From the text: (§4) The purpose of this assay is to measure the ability of test compounds to inhibit FGFR mediated downstream signaling cascades, i.e., ERK phosphorylation in cells with FGFR aberrations. FGFR aberrations become constitutively active and thus induces cascades of cellular signaling events that result in increased phosphorylation of ERK at Threonine 202 and Tyrosine 204 (pERK). The procedure called In Cell ELISA described below measures the level of cellular pERK in response to FGFR specific inhibitor compounds in FGFR aberrations of AN3CA (FGFR2/k310R, N549K), DMS114 (FGFR1 amplification), RT112 (FGFR3 overexpression/FGFR3-TACC3 fusion) and Hep3B (FGF19 amplification) cells. AN3CA, DMS114 and Hep3B cells are from ATCC. RT112 cells are from Sigma. DMS114 cells are grown and maintained using RPMI-1640 medium supplemented with 10% heat-inactivated fetal bovine serum. AN3CA, Hep3B and RT112 cells are grown and maintained using DMEM supplemented with 10% heat-inactivated fetal bovine serum. On the day before test compound addition, cells are plated in poly-D-lysine coated 96-well cell culture plates (Corning® BioCoat® Cat #356640) at 40000 cells/well/100 μL and grown overnight in a 37° C., 5% CO2 incubator. Test compounds are prepared with 4-fold serial dilutions in DMSO, with a top concentration of 10 μM. On the day of the assay, 50 μL of test compound diluted in media was added to each well of cell culture plate with the final concentration of compounds spanning from 0.000038 μM to 10 μM. After compound addition, cells are incubated for 3 hours at 37° C., 5% CO2 and then the culture medium is removed. Cells are fixed with 4% formaldehyde in phosphate-buffered saline (PBS) and incubated at RT for 20 min. The plate is then washed three times with PBST (PBS with 0.05% tween-20), followed by the incubation with 100 μL of pre-cooled methanol at −20° C. for 20 min. After incubation, methanol is removed, and the plate is washed once with PBST. Cells are permeabilized with 100 µL/well of 0.1% Triton X-100 in PBS at RT for 20 min and then quenched with quenching buffer (PBST containing 1% H2O2 and 0.1% sodium azide) for 20 min at RT with gentle shaking. After washing once with PBST, blocking buffer (250 ul/well, Pierce™ Protein-Free-PBS Blocking Buffer, Cat #37572) was then added to the cells for 1-h incubation at RT, followed by anti-pERK antibody (cell signaling, 1:1000 dilution in 5% BSA in PBST) incubation overnight at 4° C. and secondary antibody-HRP (Jackson immunoresearch, 1:3000 dilution in 5% BSA in PBST) incubation at RT for 1 h. PBST wash is carried out after each step three times. Before the addition of the substrate (Advansta ELISABright), the plate is washed with PBS twice to remove detergent residues. Cellular pERK level is determined using the microplate reader (Biotek Synergy H1) to detect the chemiluminescence signal. IC50 is determined by fitting a 4-parameter sigmoidal concentration-response model. FGFR wild type cells (H1975, PC-9 and AGS) are used to serve as negative control (FGFR selectivity) with the same assay procedures described above.
# FGFR2 = target: T3, FGFR2 (Homo sapiens, UniProt P21802, K310R/N549K); assay: pERK potency assay (In Cell ELISA), AN3CA cells; type: cell-based; details: for IC50: pERK, AN3CA (FGFR2/k310R, N549K) cells, 3 hours; for FGFR1 IC50/FGFR2 IC50 / FGFR3 IC50/FGFR2 IC50: selectivity ratio, pERK potency; for FGFR1 IC50/FGFR2 IC50: FGFR2 relative to FGFR1; for FGFR3 IC50/FGFR2 IC50: FGFR2 relative to FGFR3
# T3 construct: in FGFR aberrations of AN3CA (FGFR2/k310R, N549K); host or cells: AN3CA
# T3 sequence (P21802 22-821 K310R/N549K): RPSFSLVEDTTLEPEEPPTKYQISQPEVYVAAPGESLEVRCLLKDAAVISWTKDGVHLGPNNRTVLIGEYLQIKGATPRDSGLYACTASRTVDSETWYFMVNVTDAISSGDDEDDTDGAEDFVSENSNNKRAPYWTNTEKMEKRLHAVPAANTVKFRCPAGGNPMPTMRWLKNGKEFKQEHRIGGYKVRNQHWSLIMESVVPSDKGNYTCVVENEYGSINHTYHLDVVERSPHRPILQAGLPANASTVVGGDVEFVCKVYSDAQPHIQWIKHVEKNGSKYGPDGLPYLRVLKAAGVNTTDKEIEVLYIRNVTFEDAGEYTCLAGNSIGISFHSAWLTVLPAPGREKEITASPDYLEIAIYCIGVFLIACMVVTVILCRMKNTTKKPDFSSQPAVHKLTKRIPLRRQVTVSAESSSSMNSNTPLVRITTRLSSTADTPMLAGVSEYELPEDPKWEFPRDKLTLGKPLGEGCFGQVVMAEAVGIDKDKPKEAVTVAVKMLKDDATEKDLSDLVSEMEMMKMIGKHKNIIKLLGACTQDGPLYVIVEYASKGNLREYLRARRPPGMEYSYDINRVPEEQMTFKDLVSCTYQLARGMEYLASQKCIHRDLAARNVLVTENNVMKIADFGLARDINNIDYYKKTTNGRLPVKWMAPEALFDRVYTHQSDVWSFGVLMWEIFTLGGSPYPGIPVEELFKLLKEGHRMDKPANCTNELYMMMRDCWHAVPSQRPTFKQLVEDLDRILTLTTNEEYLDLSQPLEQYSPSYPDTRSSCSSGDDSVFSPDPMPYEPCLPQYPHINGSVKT
# From the text: as §4
# FGFR3 = target: T4, FGFR3 (Homo sapiens, UniProt P22607); assay: pERK potency assay (In Cell ELISA), RT112 cells; type: cell-based; details: RT112 (FGFR3 overexpression/FGFR3-TACC3 fusion) cells, 3 hours
# T4 construct: RT112 (FGFR3 overexpression/FGFR3-TACC3 fusion); host or cells: RT112; the other entry of the earlier key: TACC3 (Q9Y6A5, Transforming acidic coiled-coil-containing protein 3)
# From the text: as §4
# Ba/F3 FGFR2-V564F = target: T5, Ba/F3 FGFR2-V564F (Homo sapiens, UniProt P21802, V564F, cells depend on it); assay: 2D cell proliferation assay, Ba/F3 FGFR2-V564F; type: cell-based, mouse; details: 96 hours, CTG, read-out: Cell Line, IC50 Ba/F3 FGFR2-V564F
# T5 construct: fused on or other part: Q9H694 (Protein bicaudal C homolog 1)
# T5 sequence (P21802 whole entry V564F, the tested form may be a part): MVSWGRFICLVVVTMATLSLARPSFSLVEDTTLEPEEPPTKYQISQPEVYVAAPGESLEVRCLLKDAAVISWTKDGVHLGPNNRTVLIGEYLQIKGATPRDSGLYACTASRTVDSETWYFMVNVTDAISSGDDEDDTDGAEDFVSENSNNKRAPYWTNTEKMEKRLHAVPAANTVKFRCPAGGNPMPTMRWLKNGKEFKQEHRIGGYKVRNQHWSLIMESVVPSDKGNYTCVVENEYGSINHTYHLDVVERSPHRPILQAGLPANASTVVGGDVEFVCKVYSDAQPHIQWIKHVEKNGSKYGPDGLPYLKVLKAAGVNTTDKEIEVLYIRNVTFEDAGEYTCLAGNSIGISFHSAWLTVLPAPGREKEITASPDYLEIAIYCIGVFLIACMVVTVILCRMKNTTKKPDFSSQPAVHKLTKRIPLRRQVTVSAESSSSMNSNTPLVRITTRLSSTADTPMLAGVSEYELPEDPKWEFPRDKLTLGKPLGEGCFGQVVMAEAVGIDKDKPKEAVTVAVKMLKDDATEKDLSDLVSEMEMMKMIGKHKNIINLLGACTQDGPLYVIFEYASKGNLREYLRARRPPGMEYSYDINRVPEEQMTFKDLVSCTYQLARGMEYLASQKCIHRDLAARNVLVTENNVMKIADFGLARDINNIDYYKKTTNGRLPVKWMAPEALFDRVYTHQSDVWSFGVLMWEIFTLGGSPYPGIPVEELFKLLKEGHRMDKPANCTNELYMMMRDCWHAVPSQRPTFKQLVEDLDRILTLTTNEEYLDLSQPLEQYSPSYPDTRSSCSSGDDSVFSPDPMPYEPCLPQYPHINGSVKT
# Description: as §1, §2, §3
# T1 sequence (P21802 whole entry N549K, the tested form may be a part): as the sequence (P21802 whole entry V564F, the tested form may be a part) above, with N549K, F564V counted along it
SMILES,GI50 (Ba/F3 FGFR2-N549K) [µM],IC50 (FGFR1) [µM],IC50 (FGFR2) [µM],FGFR1 IC50/FGFR2 IC50 (FGFR2),FGFR3 IC50/FGFR2 IC50 (FGFR2),IC50 (FGFR3) [µM],GI50 (Ba/F3 FGFR2-V564F) [µM]
"C=CC(=O)N1CCC2(CC=C(c3c(-c4ncc(OC)cn4)c4c(N)ncnc4n3C)CC2)CC1 [Example 43, 1-(9-(4-amino-5-(5-methoxypyrimidin-2-yl)-7-methyl-7H-pyrrolo[2,3-d]pyrimidin-6-yl)-3-azaspiro[5.5]undec-8-en-3-yl)prop-2-en-1-one]",0.001 to 0.01,> 0.1,≤ 0.001,H (a selectivity ratio greater than 500 but less than or equal to 1000),J (a selectivity ratio greater than 2000),> 0.1,≤ 0.001
"C=CC(=O)N1CCC2(CC=C(c3c(-c4ncc(F)cn4)c4c(N)ncnc4n3C)CC2)CC1 [Example 44, 1-(9-(4-amino-5-(5-fluoropyrimidin-2-yl)-7-methyl-7H-pyrrolo[2,3-d]pyrimidin-6-yl)-3-azaspiro[5.5]undec-8-en-3-yl)prop-2-en-1-one]",0.001 to 0.01,> 0.1,0.001 to 0.01,H (a selectivity ratio greater than 500 but less than or equal to 1000),J (a selectivity ratio greater than 2000),> 0.1,≤ 0.001
"C=CC(=O)N1CCC2(CC=C(c3c(-c4ncc(C5CC5)cn4)c4c(N)ncnc4n3C)CC2)CC1 [Example 45, 1-(9-(4-amino-5-(5-cyclopropylpyrimidin-2-yl)-7-methyl-7H-pyrrolo[2,3-d]pyrimidin-6-yl)-3-azaspiro[5.5]undec-8-en-3-yl)prop-2-en-1-one]",0.001 to 0.01,> 0.1,≤ 0.001,G (a selectivity ratio greater than 150 but less than or equal to 500),H (a selectivity ratio greater than 500 but less than or equal to 1000),> 0.1,0.001 to 0.01
"C=CC(=O)N1CCC2(CC=C(c3c(-c4ncc(OC5CCOC5)cn4)c4c(N)ncnc4n3C)CC2)CC1 (centres unmarked) [Example 47, 1-(9-(4-amino-7-methyl-5-(5-((tetrahydrofuran-3-yl)oxy)pyrimidin-2-yl)-7H-pyrrolo[2,3-d]pyrimidin-6-yl)-3-azaspiro[5.5]undec-8-en-3-yl)prop-2-en-1-one]",> 0.1,> 0.1,≤ 0.001,G (a selectivity ratio greater than 150 but less than or equal to 500),I (a selectivity ratio greater than 1000 but less than or equal to 2000),> 0.1,> 0.1
"C=CC(=O)N1CCC2(CC=C(c3c(-c4ncc(OC5CC5)cn4)c4c(N)ncnc4n3C)CC2)CC1 [Example 50, 1-(9-(4-amino-5-(5-cyclopropoxypyrimidin-2-yl)-7-methyl-7H-pyrrolo[2,3-d]pyrimidin-6-yl)-3-azaspiro[5.5]undec-8-en-3-yl)prop-2-en-1-one]",0.001 to 0.01,> 0.1,≤ 0.001,G (a selectivity ratio greater than 150 but less than or equal to 500),I (a selectivity ratio greater than 1000 but less than or equal to 2000),> 0.1,≤ 0.001
"C=CC(=O)N1CCC2(CC=C(c3c(-c4ncc(C5CCOC5)cn4)c4c(N)ncnc4n3C)CC2)CC1 (centres unmarked) [Example 52, 1-(9-(4-amino-7-methyl-5-(5-(tetrahydrofuran-3-yl)pyrimidin-2-yl)-7H-pyrrolo[2,3-d]pyrimidin-6-yl)-3-azaspiro[5.5]undec-8-en-3-yl)prop-2-en-1-one]",0.001 to 0.01,> 0.1,0.001 to 0.01,H (a selectivity ratio greater than 500 but less than or equal to 1000),I (a selectivity ratio greater than 1000 but less than or equal to 2000),> 0.1,≤ 0.001
"C=CC(=O)N1CCC2(CC=C(c3c(-c4cccnn4)c4c(N)ncnc4n3C)CC2)CC1 [Example 61, 1-(9-(4-amino-7-methyl-5-(pyridazin-3-yl)-7H-pyrrolo[2,3-d]pyrimidin-6-yl)-3-azaspiro[5.5]undec-8-en-3-yl)prop-2-en-1-one]",–,> 0.1,0.01 to 0.03,G (a selectivity ratio greater than 150 but less than or equal to 500),G (a selectivity ratio greater than 150 but less than or equal to 500),> 0.1,–
